Data taken from PubChem BioAssay (NCI).
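Cells were grown in 96-well plates and exposed to each compound for 48 hours at five concentrations; endpoints were interpolated linearly between bracketing concentrations, or set to the highest concentration if not reached. GI50: concentration for 50% inhibition of growth. TGI: concentration producing complete growth inhibition.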

Experiments:
Experiment in all cases: NCI anticancer screen, dose series, 48 h; in the data active = GI50 below about 0.43 µM; inactive = the rest
[1] = tested on: ACHN renal
[2] = tested on: DLD-1 colon
[3] = tested on: OVCAR-4 ovarian
[4] = tested on: UACC-62 melanoma
[5] = tested on: HT29 colon
[6] = tested on: SNB-78 CNS
[7] = tested on: SF-295 CNS
[8] = tested on: NCI-H460 lung
[9] = tested on: HCT-15 colon
[10] = tested on: SK-MEL-2 melanoma

O=C(O)CCSC(=O)Nc1cccc2ccccc12
> 100 µM: TGI [1] | TGI [2] | TGI [3] | TGI [4] | TGI [5] | TGI [6] | TGI [7] | TGI [8] | TGI [9]

CC[O-].CC[O-].O=C([CH-]C(=O)c1ccccc1)CCCCCCC(=O)[CH-]C(=O)c1ccccc1.[Ti+4]
inactive: GI50 [1] > 100 µM | GI50 [10] > 100 µM | GI50 [2] > 100 µM | GI50 [3] > 100 µM | GI50 [4] > 100 µM | GI50 [5] > 100 µM | GI50 [6] > 100 µM | GI50 [7] > 100 µM | GI50 [8] > 100 µM | GI50 [9] > 100 µM
> 100 µM: TGI [1] | TGI [10] | TGI [2] | TGI [3] | TGI [4] | TGI [5] | TGI [6] | TGI [7] | TGI [8] | TGI [9]

CN=C1CN=C(OP(=O)(N2CCOCC2)N2CCOCC2)c2cc(Cl)ccc2N1
> 100 µM: TGI [1] | TGI [10] | TGI [2] | TGI [3] | TGI [4] | TGI [5] | TGI [6] | TGI [7] | TGI [8] | TGI [9]

COc1ccc(-c2oc3c(OC)c(OC)c(OC)c(O)c3c(=O)c2OC)cc1O
> 100 µM: TGI [1] | TGI [2] | TGI [3] | TGI [6]
36.8 µM: TGI [5]
19.8 µM: TGI [4]
active: GI50 [1] 0.159 µM | GI50 [2] 0.0674 µM | GI50 [4] < 0.01 µM | GI50 [6] < 0.01 µM | GI50 [8] < 0.01 µM
0.138 µM: TGI [8]
0.221 µM: TGI [10]
21.2 µM: TGI [7]

Cc1ccc(/C=N/NS(=O)(=O)c2ccccc2)cc1C
> 100 µM: TGI [1] | TGI [10] | TGI [2] | TGI [3] | TGI [4] | TGI [5] | TGI [6] | TGI [7] | TGI [8] | TGI [9]

COc1cccc(C=O)c1[O-].COc1cccc(C=O)c1[O-].[Zn+2]
> 100 µM: TGI [1] | TGI [10] | TGI [2] | TGI [3] | TGI [4] | TGI [5] | TGI [6] | TGI [8] | TGI [9]
68.1 µM: TGI [7]

CC(=O)OC1=C2CC[C@@H]3C(CC[C@@]4(C)C3CC[C@@H]4OC(C)=O)[C@@]2(C)CC(C#N)C1=O (stereo partly specified)
74.4 µM: TGI [8]
> 100 µM: TGI [5] | TGI [7] | TGI [9]
90.8 µM: TGI [6]
69.8 µM: TGI [2]
38.9 µM: TGI [4]
59.4 µM: TGI [10] | TGI [3]
71 µM: TGI [1]

COc1ccccc1NC(=O)CC(=O)n1nc(C)c(N=Nc2ccccc2Cl)c1C
57.1 µM: TGI [6]
> 100 µM: TGI [1] | TGI [10] | TGI [2] | TGI [3] | TGI [4] | TGI [5] | TGI [7] | TGI [8] | TGI [9]

CCOC(=O)CNC(=O)OCc1ccccc1
> 100 µM: TGI [1] | TGI [10] | TGI [2] | TGI [4] | TGI [5] | TGI [6] | TGI [7] | TGI [8] | TGI [9]

O=C(CC1(O)C(=O)Nc2ccccc21)c1ccc(Cl)cc1Cl (stereo unspecified)
> 100 µM: TGI [1] | TGI [10] | TGI [2] | TGI [3] | TGI [4] | TGI [5] | TGI [6] | TGI [7] | TGI [9]
